Laboratory results reported in patent US6316182A, “Detection of reverse transcriptase by DNA hybridization assay” (priority 1992, dated 2001).
“And” between values parts separate entries of the source, which are not always exact repeats. Identical values can stand only once. Like-named read-outs stand apart in the source and are kept apart here.

Key:
[1] = tested on: HIV-1 reverse transcriptase with valine for leucine at codon 74; settings: valine for the wild-type leucine at codon 74; cited from earlier work
AMV RT = assay: Heteropolymeric RNA template RT hybridization assay, inhibition of AMV RT (Example 3); type: biochemical, avian myeloblastosis virus; settings: for Absorbance (450 nm-650 nm): no-drug absorbance 3.760
Procedure: (§1) 1. 10 μL of 1 N KOH was added to each tube and incubated at 37° C. for 15 minutes to hydrolyze the RNA.
(§2) 2. 10 μL of 1 N KH2 PO4 was added to each tube to neutralize the pH and […] of solution from each tube was transferred to a well of a streptavidin-coated microplate.
(§3) 3. 50 μL of the following solution was added to each well:
(§4) 4. The wells were covered with an adhesive plate cover and incubated at 37° C. for 2 hours.
(§5) 6. 100 μL of tetramethylbenzidine (TMB, SOMA) was added to each well and incubated for 1 hour at room temperature.
(§6) 7. 100 μL of TMB Stop Solution (SOMA) was added to each well and the absorbance (450 nm-650 nm) of the wells was read with a plate reader.
Same as described in Example 1 above.
AMV RT (Du Pont) was used as a model to illustrate use of the method of the present invention for detecting and/or quantitating the ability of a compound to inhibit RT activity. AMV RT was added to give tubes containing 40 μL of the following solution:
These reaction conditions were similar to those of Example 1 above except with respect to the addition of the inhibitor, the lower dNTP concentration (0.001 mM instead of 0.5 mM) and the increased amount of RT (200 mU instead of 5 mU). Reducing the dNTPs decreases the signal in the assay, but increasing the RT increases the signal. The reduced dNTP concentration helps to make the assay more sensitive to inhibitors which act competitively with the dNTPs and, thus, less inhibitor is needed to achieve the effect. By adding more inhibitor, the same results can be obtained at higher dNTP concentrations.
The tubes were incubated at 37° C. for 1 hour to allow the synthesis of cDNA.
Same as for Example 1 described above.

[2] = tested on: HIV-1 reverse transcriptase with codon 215 and/or codon 219 substitution; settings: phenylalanine or tyrosine for threonine at codon 215, and/or glutamine for lysine at codon 219; cited from earlier work
wild-type RT = target: T1, wild-type RT (Human immunodeficiency virus type 1 group M subtype B, UniProt P04585); assay: Heteropolymeric RNA template RT hybridization assay, inhibition of wild-type RT (Example 2); type: biochemical, HIV-1
T1 construct: Wild-type and mutant RT genes of these clones were subcloned into a bacterial expression vector (pKRT2); made in house; host or cells: E. coli
Procedure: (§7) A template RNA was synthesized by in vitro transcription from linearized pSP72 plasmid DNA by performing the following steps:
(§8) 2. In vitro transcription with T7 RNA polymerase was performed by 2 hour incubation at 37° C. of a solution containing 50 μg/mL of the linearized DNA, 400 units/mL T7 RNA polymerase, 40 mM Tris-HCl buffer, pH 8.0, 6 mM MgCl2, 2 mM spermidine, 10 mM NaCl, 10 mM DTT, 0.5 mM rATP, 0.5 mM rGTP, 0.5 mM rCTP and 0.5 mM rUTP.
(§9) The following DNA oligonucleotide was synthesized on a DNA synthesizer employing standard methods:
(§10) The following probe oligonucleotides were synthesized on a DNA synthesizer and conjugated with biotin or horseradish peroxidase (HRP) employing standard methods.
as §1, §2, §3, §4, §5, §6
(§11) In this example, RT was obtained from E. coli expression systems as described below and was added to each tube in sufficient amount to give a significant signal (about 1-2 absorbance units) in the absence of drug. The same amount of RT was added to each tube. Both a wild-type and a codon 74 (ddI-resistant) mutant RT were tested. Molecular clones were constructed by site-directed mutagenesis to contain a mutation at codon 74, 215, and/or 219. Mutants at codon 74 are resistant to ddI. Wild-type and mutant RT genes of these clones were subcloned into a bacterial expression vector (pKRT2). Bacterial lysates containing recombinant expressed RT, both wild-type and mutant, were made as previously described (D'Aquila, R. T. and Summers, W. C. (1989) JAIDS 2:579-587). The IC50 was determined by computerized estimation (Systat version 5.1) of the median-effect equation: fractional reduction=1/[1+(IC50/drug concentration)^m ]. Each IC50 is the mean of 5-10 experiments. Results of a one-tailed Mann-Whitney U test for the difference between mean wild-type and mutant IC50s: p<0.005.
(§12) An amount of ddATP (the active form of ddI) varying from 0.0005 to 0.250 mM was added to various tubes containing 40 μL of the following solution:
(§13) In this example, the dNTP concentrations were the same as described in Example 1 above.
(§14) These tubes were incubated at 37° C. for 1 hour to allow the synthesis of cDNA. […]

[3] = target: T2, codon 74 (ddI-resistant) mutant RT (Human immunodeficiency virus type 1 group M subtype B, UniProt P04585, L661V); assay: Heteropolymeric RNA template RT hybridization assay, inhibition of codon 74 mutant RT (Example 2); type: biochemical, HIV-1
T2 construct: Wild-type and mutant RT genes of these clones were subcloned into a bacterial expression vector (pKRT2); made in house; host or cells: E. coli
Procedure: as §7, §8, §9, §10, §1, §2, §3, §4, §5, §6, §11, §12, §13, §14

[4] = tested on: triple mutant RT (74/215/219); assay: Heteropolymeric RNA template RT hybridization assay, inhibition of triple mutant RT 74/215/219 (Example 2); type: biochemical, HIV-1; settings: 74/215/219 mutant RT; single determinations; read-out: IC50 (multiple determinations)
Procedure: as §11, §12, §13, §14

In the case of `O=c1[nH]cnc2c1ncn2[C@H]1CC[C@@H](CO)O1` [ddI], the “resistance of the RT to the drug” value [1] is given as “leads to ddI resistance”.
With `O=C(O)P(=O)(O)O` [fosgarnet] the “inhibition detected and/or quantitated” value (AMV RT; similar experiment, non-nucleoside RT inhibitor) was “could also be detected and/or quantitated”.
In the case of `Cc1cn([C@H]2C[C@H](N=[N+]=[N-])[C@@H](CO)O2)c(=O)[nH]c1=O` [AZT, zidovudine], the “resistance of the RT to the drug” value [2] is given as “leads to resistance to AZT”.
`Nc1ncnc2c1ncn2[C@H]1CC[C@@H](COP(=O)(O)OP(=O)(O)OP(=O)(O)O)O1` [ddATP] gave an IC50 (wild-type RT; 10 cases, 0.5 mM dNTPs, read-out: Maximum (IC50)) of 8.7 µM, an IC50 (wild-type RT; 10 cases, 0.5 mM dNTPs, read-out: Minimum (IC50)) of 3.1 µM and an IC50 (wild-type RT; mean of 10 cases, 0.5 mM dNTPs, wild-type vs mutant p<0.005, read-out: Mean (IC50)) of 6.79 µM. The IC50 (wild-type RT; single determinations, read-out: IC50 (multiple determinations)) was 8.6 µM and 6.7 µM and 7.8 µM and 4.9 µM and 5.7 µM, the IC50 ([3]; 74 mutant RT, single determinations, read-out: IC50 (multiple determinations)) was 13.2 µM and 16.6 µM and 13.4 µM and the IC50 ([3]; Mutant 74 RT, 5 cases, 0.5 mM dNTPs, read-out: Maximum (IC50)) was 29.4 µM. The IC50 ([3]; Mutant 74 RT, 5 cases, 0.5 mM dNTPs, read-out: Minimum (IC50)) was 11.1 µM, the IC50 ([3]; Mutant 74 RT, mean of 5 cases, 0.5 mM dNTPs, wild-type vs mutant p<0.005, read-out: Mean (IC50)) was 16.9 µM and the IC50 [4] was 79.3 µM. For the same compound, the “Absorbance (450 nm-650 nm)” value (AMV RT; ddATP 0.0001 mM) was 3.593, the “Absorbance (450 nm-650 nm)” value (AMV RT; ddATP 0.00025 mM) was 2.984 and the “Absorbance (450 nm-650 nm)” value (AMV RT; ddATP 0.0005 mM) was 2.079. The “Absorbance (450 nm-650 nm)” value (AMV RT; ddATP 0.0010 mM) was 1.365, the “Absorbance (450 nm-650 nm)” value (AMV RT; ddATP 0.0025 mM) was 0.350 and the “Absorbance (450 nm-650 nm)” value (AMV RT; ddATP 0.0050 mM) was 0.197. For the same compound, the “Absorbance (450 nm-650 nm)” value (AMV RT; ddATP 0.0100 mM) was 0.224.
